Patent US7399775B2, “β-amyloid protein production/secretion inhibitor” (Daiichi Pharmaceutical Co., Ltd., priority 2001, dated 2008)

O=S(=O)(c1ccc(Cl)cc1)C(CCCc1ccccc1)c1cc(F)ccc1F (stereo not shown) [Example 312, 2-[1-(4-Chlorophenylsulfonyl)-4-phenylbutyl]-1,4-difluorobenzene]
melting point: 107 to 108 °C

CS(=O)(=O)N1CCC(c2cc(F)ccc2F)(S(=O)(=O)c2ccc(Cl)cc2)CC1 [Example 269, 4-[(4-Chlorophenyl)sulfonyl]-4-(2,5-difluorophenyl)-1-(methylsulfonyl)piperidine]
melting point: 176 to 178 °C

CC(C)(C)OC(=O)N1CCC(C(c2cc(F)ccc2F)S(=O)(=O)c2ccc(Cl)cc2)CC1 (stereo not shown) [Example 290, t-Butyl 4-[[(4-chlorophenyl)sulfonyl](2,5-difluorophenyl)methyl]-1-piperidinecarboxylate]
melting point: 193 to 196 °C

CN(C)CCC(c1ccncc1)S(=O)(=O)c1ccc(Cl)cc1 (stereo not shown) [Example 126, 3-(4-Chlorophenylsulfonyl)-N,N-dimethyl-3-(pyridin-4-yl)propylamine]
melting point: 91 to 92 °C

O=C(CCC(c1cc(F)ccc1F)S(=O)(=O)c1ccc(Cl)cc1)N1CCCC1 (stereo not shown) [Example 201, 4-[(4-Chlorophenyl)sulfonyl]-4-(2,5-difluorophenyl)-1-(1-pyrrolildinyl)-1-butanone]
melting point: 134 to 135 °C

CCCC(=O)C(c1cc(F)ccc1F)S(=O)(=O)c1ccc(Cl)cc1 (stereo not shown) [Example 7, 1-[(4-Chlorophenyl)sulfonyl]-1-(2,5-difluorophenyl)-2-pentanone]
melting point: 85.5 to 86 °C

O=S(=O)(c1ccc(Cl)cc1)C(Cc1cccs1)c1cc(F)ccc1F (stereo not shown) [Example 295, 2-[2-[(4-Chlorophenyl)sulfonyl]-2-(2,5-difluorophenyl)ethyl]thiophene]
melting point: 127 to 130 °C

O=S1(=O)CCC(c2cc(F)ccc2F)(S(=O)(=O)c2ccc(Cl)cc2)CC1 [Example 253, 4-[(4-Chlorophenyl)sulfonyl]-4-(2,5-difluorophenyl)tetrahydrothiopyran-1,1-dioxide]
melting point: 204 to 206 °C

CC1(C)COC(CCC(c2cc(F)ccc2F)S(=O)(=O)c2ccc(Cl)cc2)OC1 (stereo not shown) [Example 321, 2-[3-(4-Chlorophenylsulfonyl)-3-(2,5-difluorophenyl)propyl]-5,5-dimethyl-1,3-dioxane]
melting point: 69 to 71 °C

Cc1ccccc1CCC(c1cc(F)ccc1F)S(=O)(=O)c1ccc(Cl)cc1 (stereo not shown) [Example 305, 2-[1-(4-Chlorophenylsulfonyl)-3-(2-methylphenyl)propyl]-1,4-difluorobenzene]
melting point: 105 to 106 °C

CS(=O)(=O)NCCC(c1cc(F)ccc1F)S(=O)(=O)c1ccc(Cl)cc1 (stereo not shown) [Example 245, N-[3-(4-Chlorophenylsulfonyl)-3-(2,5-difluorophenyl)propyl]methanesulfonamide]
melting point: 131 to 134 °C

O=S(=O)(c1ccc(Cl)cc1)C(CCO)c1cc(F)ccc1F (stereo not shown) [Example 207, 3-[(4-Chlorophenyl)sulfonyl]-3-(2,5-difluorophenyl)-1-propanol]
melting point: 147 to 149 °C

O=c1oc2ccccc2c(O)c1C(Sc1ccc(Cl)cc1)c1cc(F)ccc1F (stereo not shown)
melting point: 146 to 147 °C

O=S(=O)(c1ccc(Cl)cc1)C(CCn1cccc1)c1cc(F)ccc1F (stereo not shown) [Example 297, 1-[3-[(4-Chlorophenyl)sulfonyl]-3-(2,5-difluorophenyl)propyl]-1H-pyrrole]
melting point: 108 to 113 °C

CC(C)(C)OC(=O)NCCCC(c1cc(F)ccc1F)S(=O)(=O)c1ccc(Cl)cc1 (stereo not shown) [Example 226, t-Butyl N-[4-[(4-chlorophenyl)sulfonyl]-4-(2,5-difluorophenyl)butyl]carbamate]
melting point: 119 to 120 °C

O=S(=O)(c1ccc(Cl)cc1)C(Cc1ccccc1)c1cc(F)ccc1F (stereo not shown) [Example 217, 2-[1-[(4-Chlorophenyl)sulfonyl]-2-phenylethyl]-1,4-difluorobenzene]
melting point: 160 to 161 °C

CS(=O)(=O)CCCCC(c1c(F)cccc1F)S(=O)(=O)c1ccc(Cl)cc1 (stereo not shown) [Example 81, 2-[1-(4-Chlorophenylsulfonyl)-5-(methylsulfonyl)pentyl]-1,3-difluorobenzene]
melting point: 118 to 119 °C

O=S(=O)(c1ccc(Cl)cc1)C1(c2nnnn2Cc2ccccc2)CCCCC1 [Example 195, 1-Benzyl-5-[1-(4-chlorobenzenesulfonyl)cyclohexyl]-1H-tetrazole]
melting point: 154 to 155 °C

CC1CCCC1(c1cc(F)ccc1F)S(=O)(=O)c1ccc(Cl)cc1 (stereo not shown) [Example 279, 2-[1-[(4-Chlorophenyl)sulfonyl]-2-methylcyclopentyl]-1,4-difluorobenzene]
melting point: 105 to 109 °C

O=S(=O)(c1ccc(Cl)cc1)C(c1ccncc1)C1CCCC1 (stereo not shown) [Example 121, 4-[(4-Chlorophenylsulfonyl)(cyclopentyl)methyl]pyridine]
melting point: 133 to 135 °C

O=S(=O)(c1ccc(Cl)cc1)C1(c2cc(F)ccc2F)Cc2ccccc2C1 [Example 278, 2-[(4-Chlorophenyl)sulfonyl]-2-(2,5-difluorophenyl)indane]
melting point: 209 to 210 °C (dec.)

O=S(=O)(c1ccc(Cl)cc1)C(CCc1ccc(Br)cc1)c1cc(F)ccc1F (stereo not shown) [Example 311, 2-[3-(4-Bromophenyl)-1-(4-chlorophenylsulfonyl)propyl]-1,4-difluorobenzene]
melting point: 122 to 124 °C

COC(=O)CCc1ccc(C(c2cc(F)ccc2F)S(=O)(=O)c2ccc(Cl)cc2)nc1 (stereo not shown) [Example 333, Methyl 3-[6-[(4-chlorophenylsulfonyl)-(2,5-difluorophenyl)methyl]pyridin-3-yl]propionate]
melting point: 121 to 123 °C

CS(=O)(=O)CCCCC(c1ccc(F)cc1)S(=O)(=O)c1ccc(Cl)cc1 (stereo not shown) [Example 55, 1-[1-[(4-Chlorophenyl)sulfonyl]-5-(methylsulfonyl)pentyl]-4-fluorobenzene]
melting point: 141 to 142.5 °C

C=CCOc1cccnc1C(c1cc(F)ccc1F)S(=O)(=O)c1ccc(Cl)cc1 (stereo not shown) [Example 140, 3-Allyloxy-2-[[(4-chlorophenyl)sulfonyl]-(2,5-difluorophenyl)methyl]pyridine]
melting point: 119 to 120 °C

O=S(=O)(Cc1ccccc1)c1ccc(Cl)cc1 [Example 50, 1-Chloro-4-(benzylsulfonyl)benzene]
melting point: 147.5 to 148.5 °C

Cc1ccnc(C(c2cc(F)ccc2F)S(=O)(=O)c2ccc(Cl)cc2)c1 (stereo not shown) [Example 138, 2-[[(4-Chlorophenyl)sulfonyl]-(2,5-difluorophenyl)methyl]-4-methylpyridine]
melting point: 116 to 117 °C

CS(=O)(=O)CCCCC(c1ccncc1)S(=O)(=O)c1ccc(Cl)cc1 (stereo not shown) [Example 74, 4-[1-[(4-Chlorophenyl)sulfonyl]-5-(methylsulfonyl)pentyl]pyridine]
melting point: 181 to 182 °C

CC(C)(C)OC(=O)CC(c1cc(F)ccc1F)S(=O)(=O)c1ccc(Cl)cc1 (stereo not shown) [Example 61, t-Butyl 3-[(4-chlorophenyl)sulfonyl]-3-(2,5-difluorophenyl)propionate]
melting point: 140.5 to 142 °C

NC(=O)OCCC(c1cc(F)ccc1F)S(=O)(=O)c1ccc(Cl)cc1 (stereo not shown) [Example 214, 3-[(4-Chlorophenyl)sulfonyl]-3-(2,5-difluorophenyl)propyl=carbamate]
melting point: 139 to 140 °C

O=S(=O)(c1ccc(Cl)cc1)C1(c2cnccc2Cl)CCCCC1 [Example 110, 4-Chloro-3-[1-(4-chlorophenylsulfonyl)cyclohexyl]pyridine]
melting point: 145 to 147 °C

O=S(=O)(c1ccc(Cl)cc1)C(CC[S+]([O-])CCO)c1cc(F)ccc1F (stereo not shown) [Example 254, 2-[3-[(4-Chlorophenyl)sulfonyl]-3-(2,5-difluorophenyl)propylsulfinyl]ethanol]
melting point: 124 to 132 °C

CS(=O)(=O)CCCCC(c1ccccc1F)S(=O)(=O)c1ccc(Cl)cc1 (stereo not shown) [Example 53, 1-[1-[(4-Chlorophenyl)sulfonyl]-5-(methylsulfonyl)pentyl]-2-fluorobenzene]
melting point: 167 to 168 °C

O=C(c1ccccn1)N1CCC(c2cc(F)ccc2F)(S(=O)(=O)c2ccc(Cl)cc2)CC1 [Example 266, [4-[(4-Chlorophenyl)sulfonyl]-4-(2,5-difluorophenyl)piperidino](2-pyridyl)methanone]
melting point: 193 to 196 °C

COc1cccc(C(CCCCS(C)(=O)=O)S(=O)(=O)c2ccc(Cl)cc2)c1 (stereo not shown) [Example 83, 1-[1-(4-Chlorophenylsulfonyl)-5-(methylsulfonyl)pentyl]-3-methoxybenzene]
melting point: 91 to 93 °C

CS(=O)(=O)CCCCC(Cc1ccccc1)S(=O)(=O)c1ccc(Cl)cc1 (stereo not shown) [Example 97, 4-[1-Benzyl-5-(methylsulfonyl)pentylsulfonyl]-1-chlorobenzene]
melting point: 68 to 70 °C

O=S(=O)(c1ccc(Cl)cc1)C(c1nccs1)c1cc(F)ccc1F (stereo not shown) [Example 152, 2-[[(4-Chlorophenyl)sulfonyl]-(2,5-difluorophenyl)methyl]thiazole]
melting point: 163 to 164 °C

CN(C)C(=O)N1CCC(c2cc(F)ccc2F)(S(=O)(=O)c2ccc(Cl)cc2)CC1 [Example 268, N,N-dimethyl-4-[(4-chlorophenyl)sulfonyl]-4-(2,5-difluorophenyl)-1-piperidinecarboxamide]
melting point: 143 to 146 °C

CC(CCO)C(c1cc(F)ccc1F)S(=O)(=O)c1ccc(Cl)cc1 (single isomer, unassigned) [Example 238, 4-(4-Chlorophenylsulfonyl)-4-(2,5-difluorophenyl)-3-methyl-1-butanol]
melting point: 111 to 112 °C

CSCCCCC(c1cc(F)ccc1F)S(=O)(=O)c1ccc(Cl)cc1 (stereo not shown) [Example 26, 2-[1-[(4-Chlorophenyl)sulfonyl]-5-(methylthio)pentyl]-1,4-difluorobenzene]
melting point: 103 to 106 °C

O=S(=O)(c1ccc(Cl)cc1)C(CCc1ccccc1)c1cc(F)ccc1F (stereo not shown) [Example 304, 2-[1-(4-Chlorophenylsulfonyl)-3-phenylpropyl]-1,4-difluorobenzene]
melting point: 111 to 113 °C

Fc1ccc(F)c(C(Sc2ccc(Cl)cc2)c2ccncc2Cl)c1 (stereo not shown) [Example 341, 3-Chloro-4-[(4-chlorophenylthio)-(2,5-difluorophenyl)methyl]pyridine]
melting point: 70 to 72 °C

CCOC(=O)C(=O)NCc1ccc(C(c2cc(F)ccc2F)S(=O)(=O)c2ccc(Cl)cc2)nc1 (stereo not shown) [Example 357, Ethyl 2-[[6-[(4-chlorophenylsulfonyl)(2,5-difluorophenyl)methyl]pyridin-3-yl]methylamino]-2-oxoacetate]
melting point: 193 to 194 °C
